Results as given in US20250283073A1 (ORNA THERAPEUTICS, INC., priority 2021, published 2025).
“Also recorded” adds a separate entry of the source.

Assays:
[1] = test system: splenic immune cells; assay: Cre circRNA LNP transfection of splenic immune cells in Ai9 Cre reporter mice (tdTomato); format: in vivo; settings: 0.5 mg/kg Cre circRNA LNP i.v., 48 hr, named by ionizable lipid, 0.5 mg/kg
Description: Circular RNAs encoding Cre recombinase (Cre) are encapsulated into lipid nanoparticles as previously described. Female, 6-8 week old B6.Cg-Gt(ROSA)26Sortm9(CAG-tdTomato)Hze/J (Ai9) mice were dosed with lipid nanoparticles at 0.5 mg/kg RNA intravenously. Fluorescent tdTomato protein was transcribed and translated in Ai9 mice upon Cre recombination, meaning circular RNAs have been delivered to and translated in tdTomato+ cells. After 48 hr, mice were euthanized and the spleens were harvested, processed into a single cell suspension, and stained with various fluorophore-conjugated antibodies for immunophenotyping via flow cytometry.
Ai9 mice (B6.Cg-Gt(ROSA)26Sortm9(CAG-tdTomato)Hze/J, female, 6-8 weeks, n=3 per group) were injected i.v. with 0.5 mg/kg Cre circRNA LNPs or PBS. Ai9 mice transcribe and translate the fluorescent reporter tdTomato upon Cre recombination; meaning cells which are tdTomato+ have successfully been transfected with Cre circRNA. […] Flow cytometry was performed using an Attune Nxt Flow Cytometer (Thermo).

[2] = test system: primary human hepatocytes (PHHs); assay: IRES screening (Table 28), Gaussia luciferase LNP-oRNA in primary human hepatocytes (PHHs); settings: protein expression relative to positive control (SEQ ID NO 3282 = 1)
Description: (§1) Exemplary constructs included a 5′ enhanced intron element, a 5′ enhanced exon element, a putative IRES, a coding element encoding Gaussia Luciferase, a 3′ enhanced exon element, and a 3′ enhanced intron element.
(§2) Purified oRNA was nanoprecipitated with lipids to form LNP-oRNA constructs. LNPs were formulated first by creating empty lipid nanoparticles using a Precision Nanosystems Ignite instrument with a “NextGen” mixing chamber. Ethanol phase contained Lipid 39 from Table 10b, DSPC, cholesterol, and DMG-PEG 2000 (Avanti Polar Lipids, Inc., Alabaster, AL) at a molar ratio of 45:9:44:2 was combined with 50 mM sodium acetate buffer at pH 4.5. A 3:1 aqueous to ethanol mixing ratio was used. The empty LNPs were then dialyzed in 1 L of 1×PBS and exchanged 2 times over 18 hours. […] A 3:1 aqueous to empty lipid nanoparticle mixing ratio was used. The LNPs final ionizable lipid to RNA phosphate ratio was at 6.0.
(§3) Primary human skeletal myotubes (MYOs), primary human hepatocytes (PHHs), and activated primary human T cells (TCLs) were treated with formulated LNP-oRNA in triplicate. Protein expression in supernatant was assessed by luminescence measurements 48 hours following transfection.
(§4) Total luminescent signal was normalized across replicate plates to control for plate-wide differences between replicates due to flash assay readout timing. Plates with positive controls having <2× signal over background were excluded from analysis. Background was subtracted based on empty wells. Each test well replicate was normalized to its respective plate control and then the replicates were averaged.
(§5) Measured numbers are normalized to a control (caprine kobuvirus IRES, SEQ ID NO: 3282) and represented as a fold change.

[3] = test system: primary human skeletal myotubes (MYOs); assay: IRES screening (Table 28), Gaussia luciferase LNP-oRNA in primary human skeletal myotubes (MYOs); settings: protein expression relative to positive control (SEQ ID NO 3282 = 1)
Description: as §1, §2, §3, §4, §5

[4] = test system: activated primary human T cells (TCLs); assay: IRES screening (Table 28), Gaussia luciferase LNP-oRNA in activated primary human T cells (TCLs); settings: protein expression relative to positive control (SEQ ID NO 3282 = 1)
Description: as §1, §2, §3, §4, §5

Compound	splenic immune cells expressing tdTomato [1]	PHH AVG [Fold Change] [2]	MYO AVG [Fold Change] [3]	TCL AVG [Fold Change] [4]
CCCCCCCCC(CCCCCC)C(=O)OCCCCCCN(CCCCCCOC(=O)C(CCCCCC)CCCCCCCC)CCCn1ccnc1 (centres unmarked) [Lipid 10a-26]	significantly higher myeloid and T cell transfection compared with Lipid 93-S14; also recorded: effective at delivering circular RNAs to many splenic immune cell subsets			
CCCCCCCCC(CCCCCC)C(=O)OCCCCCCN(CCCCCCOC(=O)C(CCCCCC)CCCCCCCC)CCCn1ccnc1C (centres unmarked) [Lipid 10a-27]	significantly higher myeloid and T cell transfection compared with Lipid 93-S14; also recorded: effective at delivering circular RNAs to many splenic immune cell subsets			
CCCCCCCCC(CCCCCC)COC(=O)CCCCCCCCCN(CCCCO)CCCCCCCCCC(=O)OCC(CCCCCC)CCCCCCCC (centres unmarked) [Lipid 21]		0.1363 Fold Change	0.02126 Fold Change	0.0748 Fold Change
CCCCCCCCC(CCCCCC)C(=O)OCCCCCCCCCN(CCCCO)CCCCCCCCCOC(=O)C(CCCCCC)CCCCCCCC (centres unmarked) [Lipid 22]		0.0926 Fold Change	0.009137 Fold Change	0.0309 Fold Change
CCCCCCCCC(CCCCCC)C(=O)OCCCCCCCCCCCCN(CCCCO)CCCCCCCCCCCCOC(=O)C(CCCCCC)CCCCCCCC (centres unmarked) [Lipid 23]		0.0008387 Fold Change	0 Fold Change	0.002417 Fold Change
CCCCC(CC)C(=O)OCCCCCCCCCN(CCCCO)CCCCCCCCCOC(=O)C(CC)CCCC (centres unmarked) [Lipid 24]		0.0000246 Fold Change	0 Fold Change	0.003111 Fold Change
CCCCCCC(CCCC)C(=O)OCCCCCCCCCN(CCCCO)CCCCCCCCCOC(=O)C(CCCC)CCCCCC (centres unmarked) [Lipid 25]		0.1559 Fold Change	0.0738 Fold Change	0.452 Fold Change
CCCCCCCCCCC(CCCCCCCC)C(=O)OCCCCCCN(CCCCO)CCCCCCOC(=O)C(CCCCCCCC)CCCCCCCCCC (centres unmarked) [Lipid 26]		0.01252 Fold Change	0.002759 Fold Change	0 Fold Change
CCCCCCCCCCCCC(CCCCCCCCCC)C(=O)OCCCCCCN(CCCCO)CCCCCCOC(=O)C(CCCCCCCCCC)CCCCCCCCCCCC (centres unmarked) [Lipid 27]		0.09892 Fold Change	0.01866 Fold Change	0.02442 Fold Change
CCCCCCC(CCCC)C(=O)OCCCCCCN(CCCO)CCCCCCOC(=O)C(CCCC)CCCCCC (centres unmarked) [Lipid 28]		0.1221 Fold Change	0.01764 Fold Change	0.1126 Fold Change
CCCCCCC(CCCC)C(=O)OCCCCCCN(CCO)CCCCCCOC(=O)C(CCCC)CCCCCC (centres unmarked) [Lipid 29]		0.008274 Fold Change	0 Fold Change	0.01096 Fold Change
CCCCCCCCC(CCCCCC)C(=O)OCCCCCCN(CCCCCCOC(=O)C(CCCCCC)CCCCCCCC)CC(O)CO (centres unmarked) [Lipid 30]		0.3984 Fold Change	0.1967 Fold Change	0.373 Fold Change
CCCCCCCCC(CCCCCC)C(=O)OCCCCCCN(CCCCCCOC(=O)C(CCCCCC)CCCCCCCC)C(CC)CO (centres unmarked) [Lipid 31]		0.6943 Fold Change	0.5881 Fold Change	0.4863 Fold Change
CCCCCCCCCCCCCCCC(O)C(CO)N(CCCCCCOC(=O)C(CCCCCC)CCCCCCCC)CCCCCCOC(=O)C(CCCCCC)CCCCCCCC (centres unmarked) [Lipid 32]		0.3276 Fold Change	0.2163 Fold Change	0.02974 Fold Change
CCCCCCCCC(CCCCCC)C(=O)OCCCCCCN(CCCCCCOC(=O)C(CCCCCC)CCCCCCCC)CCCCOC(C)=O (centres unmarked) [Lipid 33]		0.4409 Fold Change	0.3574 Fold Change	0.2088 Fold Change
CCCCCCCCC(CCCCCC)C(=O)OCCCCCCN(CCCCCCOC(=O)C(CCCCCC)CCCCCCCC)CCCC(=O)OCC (centres unmarked) [Lipid 34]		0.4644 Fold Change	0.2168 Fold Change	0.2638 Fold Change
CCCCCCCCC(CCCCCC)C(=O)OCCCCCCN(CCCC#N)CCCCCCOC(=O)C(CCCCCC)CCCCCCCC (centres unmarked) [Lipid 35]		0.005378 Fold Change	0 Fold Change	0.004133 Fold Change
CCCCCCCCC(CCCCCC)C(=O)OCCCCCCN(CCCCCCOC(=O)C(CCCCCC)CCCCCCCC)CCCCNC(C)=O (centres unmarked) [Lipid 36]		0 Fold Change	0 Fold Change	0.0009344 Fold Change
CCCCCCCCCCC(CCCCCCCC)C(=O)OCCCCCCN(CCCO)CCCCCCOC(=O)C(CCCCCCCC)CCCCCCCCCC (centres unmarked) [Lipid 37]		0.2564 Fold Change	0.03859 Fold Change	0.0237 Fold Change
CCCCCCCCC(CCCCCC)C(=O)OCCCCCCCCCCCCN(CCCO)CCCCCCCCCCCCOC(=O)C(CCCCCC)CCCCCCCC (centres unmarked) [Lipid 38]		0.2209 Fold Change	0.07838 Fold Change	0.02186 Fold Change
CCCCCCCCC(CCCCCC)COC(=O)CCCCCN(CCCCCC(=O)OCC(CCCCCC)CCCCCCCC)CCCC(=O)OCC (centres unmarked) [Lipid 39]		0.003901 Fold Change	0.0002919 Fold Change	0.003256 Fold Change
CCCCCCCCC(CCCCCC)C(=O)OCCCCCCN(CCCCCCOC(=O)C(CCCCCC)CCCCCCCC)CC(O)CC (centres unmarked) [Lipid 40]		0.2391 Fold Change	0.199 Fold Change	0.05108 Fold Change
CCCCCCCCC(CCCCCC)C(=O)OCCCCCCN(CCCCCCOC(=O)C(CCCCCC)CCCCCCCC)CCCOC (centres unmarked) [Lipid 41]		0.01033 Fold Change	0.0004126 Fold Change	0.02752 Fold Change
CCCCCCC(CCCC)C(=O)OCCCCCCN(CCCCO)CCCCCCOC(=O)C(CCCC)CCCCCC (centres unmarked) [Lipid 42]		0.3425 Fold Change	0.07198 Fold Change	0.09322 Fold Change
CCCCC(CC)C(=O)OCCCCCCCCCN(CCCO)CCCCCCCCCOC(=O)C(CC)CCCC (centres unmarked) [Lipid 43]		0.456 Fold Change	0.11 Fold Change	0.2866 Fold Change
CCCCCCCCCCCCC(CCCCCCCCCC)C(=O)OCCCCCCN(CCCO)CCCCCCOC(=O)C(CCCCCCCCCC)CCCCCCCCCCCC (centres unmarked) [Lipid 44]		0.01602 Fold Change	0 Fold Change	0.01421 Fold Change
CCCCCCCCC(CCCCCC)COC(=O)CCCCCCCN(CCO)CCCCCCCC(=O)OCC(CCCCCC)CCCCCCCC (centres unmarked) [Lipid 46]		0.503 Fold Change	0.2249 Fold Change	0.2472 Fold Change
CCCCCCCCC(CCCCCC)C(=O)OCCCCCCN(CCC#N)CCCCCCOC(=O)C(CCCCCC)CCCCCCCC (centres unmarked) [Lipid 47]		0.08942 Fold Change	0.00246 Fold Change	0.02259 Fold Change
CCCCCCCCC(CCCCCC)C(=O)OCCCCCCN(CCCCCCOC(=O)C(CCCCCC)CCCCCCCC)CCCC(=O)OCC (centres unmarked) [Lipid 48]		0.4247 Fold Change	0.1303 Fold Change	0.002803 Fold Change
CCCCCCC(CCCC)COC(=O)CCCCCCCN(CCCCO)CCCCCCCC(=O)OCC(CCCC)CCCCCC (centres unmarked) [Lipid 49]		0.6215 Fold Change	0.1952 Fold Change	0.07252 Fold Change
